# From US20160151403A1, “SMALL MOLECULE MODULATORS OF P53 FAMILY SIGNALING” (The Trustees of the University of Pennsylvania, priority 2006, published 2016)
# System: p53 phosphorylation at ser20 and acetylation at lys382
# Assay: Western blot of p53 phosphorylation and acetylation (DNA damage signaling)
# Assay type: cell-based, human
# Conditions: 16 h; for p53 acetylation at lys382: HCT116/p53(+/+) cells; for p53 phosphorylation at ser20: HCT116/p53(+/+)/PG13 and SW480 cells
# Description: FIGS. 7A-7C show: p53 levels and posttranslational modifications after treatment by selected compounds. (A) HCT116/p53(+/+) cells were treated with adriamycin, compounds nos. 1, 14, 17, and 23 for 16 h, and p53 and acetylated p53 levels were detected by Western blot. Nonspecific bands (Lower) serve as a loading control. (B) HCT116/p53(+/+)/PG13 cells were treated with adriamycin or compounds as indicated for 16 h and p53, phosphorylated p53 (ser20) levels and firefly luciferase protein expression were detected by Western blot. (C) SW480 cells were treated with compounds as indicated for 16 h, and p53 and phosphorylated p53 (ser20) levels were detected by Western blot. CP, CP-31398;
# Cells were collected and protein concentration was quantified by the Bio-Rad protein assay prior to SDS-PAGE. Proteins were transferred to a PVDF membrane (Immobilon-P, Millipore Corporation, Bedford, Mass.) by a semi-dry transfer apparatus (Bio-Rad Laboratories, Hercules, Calif.). The membranes with transferred proteins were blotted with 10% W/V non-fat dry milk and then incubated with the primary antibody and subsequently secondary antibodies, which were labelled by horseradish peroxidase, or infrared dyes (IR). Signals were visualized by either ECL (Amersham Pharmacia Biotech, England, UK) and exposed to an X-ray film, or scanned by the Odyssey Infared Imaging System (LI-COR Biosciences, Lincoln, Nebr.). Anti-p53, DO-1, was from Santa Cruz biotechnology, Inc. (Santa Cruz, Calif.), anti-p73 (AB-1) and anti-p21 (AB-1) were obtained from Calbiochem (San Diego, Calif.). Anti-ser20 of p53 Cell were obtained from Signaling Technology (Danvers, Mass.) and anti-DR5 antibody was obtained from Cayman Chemical (Ann Arbor, Mich.).
# In order to determine whether DNA damage signaling is involved in the mechanism of action of selected compounds, Western blot was used to test the status of phosphorylation and acetylation of p53, which are sensitive indicators of DNA damage.
smiles,measurement,value
COc1cccc2c1C(=O)c1c(O)c3c(c(O)c1C2=O)CC(O)(/C(C)=N/O)CC3OC1CC(N)C(O)C(C)O1 (stereo not shown) [#14],p53 acetylation at lys382,strong inducers
same,p53 phosphorylation at ser20,strong inducers of p53 phosphorylation at ser20
COc1cccc2c1C(=N)c1c(O)c3c(c(O)c1C2=O)C[C@@](O)(C(C)=O)C[C@@H]3O[C@H]1C[C@H](N)[C@H](O)[C@H](C)O1 [#23],p53 acetylation at lys382,strong inducers
same,p53 phosphorylation at ser20,strong inducers of p53 phosphorylation at ser20
